According to patent publication US6737383B1, “Herbicidal oxadiazolidines” (priority 1999, dated 2004):

Tests used:
cocklebur = experiment: Test B pre/postemergence cocklebur; assay type: in vivo, Xanthium strumarium
Outline: (§1)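 Response is a visual 0-to-10 score relative to untreated plants, where 0 means no effect and 10 means complete control, taken twelve to sixteen days after application. Treatments went onto soil at planting and onto foliage of 1- to 4-leaf plants, using a surfactant-containing non-phytotoxic solvent.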

corn = experiment: Test B pre/postemergence corn; assay type: in vivo, Zea mays
Outline: as §1

crabgrass = experiment: Test B pre/postemergence crabgrass; assay type: in vivo, Digitaria sanguinalis
Outline: as §1

giant foxtail = experiment: Test B pre/postemergence giant foxtail; assay type: in vivo, Setaria faberii
Outline: as §1

morningglory = experiment: Test B pre/postemergence morningglory; assay type: in vivo, Ipomoea hederacea
Outline: as §1

pigweed = experiment: Test B pre/postemergence pigweed; assay type: in vivo, Amaranthus retroflexus
Outline: as §1

rape = experiment: Test B pre/postemergence rape; assay type: in vivo, Brassica napus
Outline: as §1

soybean = experiment: Test B pre/postemergence soybean; assay type: in vivo, Glycine max
Outline: as §1

sugar beet = experiment: Test B pre/postemergence sugar beet; assay type: in vivo, Beta vulgaris
Outline: as §1

velvetleaf = experiment: Test B pre/postemergence velvetleaf; assay type: in vivo, Abutilon theophrasti
Outline: as §1

wheat = experiment: Test B pre/postemergence wheat; assay type: in vivo, Triticum aestivum
Outline: as §1

wild oat = experiment: Test B pre/postemergence wild oat; assay type: in vivo, Avena fatua
Outline: as §1

purple nutsedge = experiment: Test B pre/postemergence purple nutsedge; assay type: in vivo, Cyperus rotundus; settings: Postemergence
Outline: as §1

rice = experiment: Test B flood test rice; assay type: in vivo, Oryza sativa
Outline: (§2)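 Flood test on plants grown to the 2-leaf stage; treated plants kept in greenhouse twelve to sixteen days, then visually rated against controls on a 0 (no effect) to 10 (complete control) scale.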

duck salad = experiment: Test B flood test duck salad; assay type: in vivo, Heteranthera limosa
Outline: as §2

bamyardgrass = experiment: Test B flood test barnyardgrass; assay type: in vivo, Echinochloa crus-galli
Outline: as §2

[1] = Preemergence, Rate 62 g/ha, scale of 0 to 10 where 0 is no effect and 10 is complete control
[2] = Preemergence, Rate 250 g/ha, scale of 0 to 10 where 0 is no effect and 10 is complete control
[3] = Preemergence, Rate 500 g/ha, scale of 0 to 10 where 0 is no effect and 10 is complete control
[4] = Rate 62 g/ha, Postemergence, scale of 0 to 10 where 0 is no effect and 10 is complete control
[5] = Rate 125 g/ha, Postemergence, scale 0 to 10
[6] = Rate 125 g/ha, Preemergence, scale of 0 to 10 where 0 is no effect and 10 is complete control
[7] = Rate 500 g/ha, Postemergence, scale 0 to 10, 0 no effect, 10 complete control
[8] = Rate 62 g/ha, headed Pre-emergence (flood test species), scale 0 to 10 (0 no effect, 10 complete control)
[9] = Rate 125 g/ha, Pre-emergence, flood test species, scale 0 to 10 where 0 is no effect and 10 is complete control
[10] = Rate 250 g/ha, Pre-emergence, flood-test species, scale 0 to 10, 0 is no effect, 10 is complete control
[11] = Rate 500 g/ha, Pre-emergence, flood test species, scale 0 to 10 (0 no effect, 10 complete control)

## CC(C)N(C(=O)n1oc(=O)n(CC2(C)COC2)c1=O)c1ccc(F)cc1 [Compound 226]
cocklebur; [1]
  Cocklebur plant response rating: 0
cocklebur; [2]
  Cocklebur plant response rating: 0
cocklebur; [3]
  Plant response rating, Cocklebur: 0
cocklebur; [4]
  Cocklebur plant response rating: 0
cocklebur; [5]
  Cocklebur plant response rating: 0
cocklebur; [6]
  Cocklebur plant response rating: 0
cocklebur; Rate 250 g/ha, Postemergence
  Plant response rating (0 to 10; 0 is no effect, 10 is complete control), Cocklebur: 0
cocklebur; [7]
  Cocklebur plant response rating: 2
corn; [1]
  Corn plant response rating: 0
corn; [2]
  Corn plant response rating: 6
corn; [3]
  Plant response rating, Corn: 9
corn; [4]
  Corn plant response rating: 0
corn; [5]
  Corn plant response rating: 0
corn; [6]
  Corn plant response rating: 0
corn; Rate 250 g/ha, Postemergence
  Plant response rating (0 to 10; 0 is no effect, 10 is complete control), Corn: 0
corn; [7]
  Corn plant response rating: 6
crabgrass; [1]
  Crabgrass plant response rating: 5
crabgrass; [2]
  Crabgrass plant response rating: 10
crabgrass; [3]
  Plant response rating, Crabgrass: 10
crabgrass; [4]
  Crabgrass plant response rating: 0
crabgrass; [5]
  Crabgrass plant response rating: 0
crabgrass; [6]
  Crabgrass plant response rating: 9
crabgrass; Rate 250 g/ha, Postemergence
  Plant response rating (0 to 10; 0 is no effect, 10 is complete control), Crabgrass: 3
crabgrass; [7]
  Crabgrass plant response rating: 8
Giant foxtail; [1]
  Giant foxtail plant response rating: 9
Giant foxtail; [2]
  Giant foxtail plant response rating: 10
Giant foxtail; [3]
  Plant response rating, Giant foxtail: 10
Giant foxtail; [4]
  Giant foxtail plant response rating: 2
Giant foxtail; [5]
  Giant foxtail plant response rating: 7
Giant foxtail; [6]
  Giant foxtail plant response rating: 10
Giant foxtail; Rate 250 g/ha, Postemergence
  Plant response rating (0 to 10; 0 is no effect, 10 is complete control), Giant foxtail: 7
Giant foxtail; [7]
  Giant foxtail plant response rating: 7
morningglory; [1]
  Morningglory plant response rating: 0
morningglory; [2]
  Morningglory plant response rating: 7
morningglory; [3]
  Plant response rating, Morningglory: 8
morningglory; [4]
  Morningglory plant response rating: 5
morningglory; [5]
  Morningglory plant response rating: 7
morningglory; [6]
  Morningglory plant response rating: 0
morningglory; Rate 250 g/ha, Postemergence
  Plant response rating (0 to 10; 0 is no effect, 10 is complete control), Morningglory: 7
morningglory; [7]
  Morningglory plant response rating: 7
pigweed; [1]
  Redroot pigweed plant response rating: 0
pigweed; [2]
  Redroot pigweed plant response rating: 7
pigweed; [3]
  Plant response rating, Redroot pigweed: 9
pigweed; [4]
  Redroot pigweed plant response rating: 0
pigweed; [5]
  Redroot pigweed plant response rating: 0
pigweed; [6]
  Redroot pigweed plant response rating: 0
pigweed; Rate 250 g/ha, Postemergence
  Plant response rating (0 to 10; 0 is no effect, 10 is complete control), Redroot pigweed: 0
pigweed; [7]
  Redroot pigweed plant response rating: 0
rape; [1]
  Rape plant response rating: 0
rape; [2]
  Rape plant response rating: 7
rape; [3]
  Plant response rating, Rape: 10
rape; [4]
  Rape plant response rating: 0
rape; [5]
  Rape plant response rating: 0
rape; [6]
  Rape plant response rating: 0
rape; Rate 250 g/ha, Postemergence
  Plant response rating (0 to 10; 0 is no effect, 10 is complete control), Rape: 0
rape; [7]
  Rape plant response rating: 6
soybean; [1]
  Soybean plant response rating: 0
soybean; [2]
  Soybean plant response rating: 0
soybean; [3]
  Plant response rating, Soybean: 0
soybean; [4]
  Soybean plant response rating: 2
soybean; [5]
  Soybean plant response rating: 2
soybean; [6]
  Soybean plant response rating: 0
soybean; Rate 250 g/ha, Postemergence
  Plant response rating (0 to 10; 0 is no effect, 10 is complete control), Soybean: 3
soybean; [7]
  Soybean plant response rating: 6
Sugar beet; [1]
  Sugarbeets plant response rating: 0
Sugar beet; [2]
  Sugarbeets plant response rating: 5
Sugar beet; [3]
  Plant response rating, Sugarbeets: 6
Sugar beet; [4]
  Sugarbeets plant response rating: 0
Sugar beet; [5]
  Sugarbeets plant response rating: 0
Sugar beet; [6]
  Sugarbeets plant response rating: 3
Sugar beet; Rate 250 g/ha, Postemergence
  Plant response rating (0 to 10; 0 is no effect, 10 is complete control), Sugarbeets: 0
Sugar beet; [7]
  Sugarbeets plant response rating: 2
velvetleaf; [1]
  Velvetleaf plant response rating: 2
velvetleaf; [2]
  Velvetleaf plant response rating: 6
velvetleaf; [3]
  Plant response rating, Velvetleaf: 7
velvetleaf; [4]
  Velvetleaf plant response rating: 0
velvetleaf; [5]
  Velvetleaf plant response rating: 0
velvetleaf; [6]
  Velvetleaf plant response rating: 5
velvetleaf; Rate 250 g/ha, Postemergence
  Plant response rating (0 to 10; 0 is no effect, 10 is complete control), Velvetleaf: 0
velvetleaf; [7]
  Velvetleaf plant response rating: 0
wheat; [1]
  Wheat plant response rating: 6
wheat; [2]
  Wheat plant response rating: 8
wheat; [3]
  Plant response rating, Wheat: 8
wheat; [4]
  Wheat plant response rating: 2
wheat; [5]
  Wheat plant response rating: 4
wheat; [6]
  Wheat plant response rating: 8
wheat; Rate 250 g/ha, Postemergence
  Plant response rating (0 to 10; 0 is no effect, 10 is complete control), Wheat: 7
wheat; [7]
  Wheat plant response rating: 9
Wild oat; [1]
  Wild oats plant response rating: 1
Wild oat; [2]
  Wild oats plant response rating: 9
Wild oat; [3]
  Plant response rating, Wild oats: 10
Wild oat; [4]
  Wild oats plant response rating: 0
Wild oat; [5]
  Wild oats plant response rating: 0
Wild oat; [6]
  Wild oats plant response rating: 3
Wild oat; Rate 250 g/ha, Postemergence
  Plant response rating (0 to 10; 0 is no effect, 10 is complete control), Wild oats: 0
Wild oat; [7]
  Wild oats plant response rating: 3
Purple nutsedge; Rate 62 g/ha, scale of 0 to 10 where 0 is no effect and 10 is complete control
  Nutsedge plant response rating: 0
Purple nutsedge; Rate 125 g/ha, scale 0 to 10
  Nutsedge plant response rating: 0
Purple nutsedge; Rate 250 g/ha
  Plant response rating (0 to 10; 0 is no effect, 10 is complete control), Nutsedge: 0
Purple nutsedge; Rate 500 g/ha, scale 0 to 10, 0 no effect, 10 complete control
  Nutsedge plant response rating: 4
rice; [8]
  Rice plant response rating: 0
rice; [9]
  Rice plant response rating: 0
rice; [10]
  Rice plant response rating: 0
rice; [11]
  Rice plant response rating: 0
Duck salad; [8]
  Ducksalad plant response rating: 0
Duck salad; [9]
  Ducksalad plant response rating: 0
Duck salad; [10]
  Ducksalad plant response rating: 0
Duck salad; [11]
  Ducksalad plant response rating: 0
bamyardgrass; [8]
  Barnyardgrass plant response rating: 0
bamyardgrass; [9]
  Barnyardgrass plant response rating: 0
bamyardgrass; [10]
  Barnyardgrass plant response rating: 0
bamyardgrass; [11]
  Barnyardgrass plant response rating: 0
